The record followed here is article PMC5345905 (Journal of the American Chemical Society, 2017).

This assay relates to Bacillus subtilis 168. As to the kind of experiment: minimal inhibitory concentration. It is filed as cell-based. Conditions: purified unique compounds, quantitative MIC.

The substance thiocillin [WT] showed an MIC of 0.5 µg/mL.
